Laboratory results from paper PMC6222476 (Molecules : A Journal of Synthetic Chemistry and Natural …, 2018).
Read-outs that look alike come from different tables or passages of the source.

Assays:
[1] = tested on: IMR-32 neuroblastoma cell line; test: cells; format: cell-based, human; details: SRB assay, 48 h
Method: (§1) All the newly synthesized compounds were screened for their in vitro anticancer activity against six cancer cell lines: SK-MEL-2, MCF-7, IMR-32, MG-63, HT-29 and Hep-G2 by SRB assay, using adriamycin as a standard drug. All the synthesized derivatives 4(a–n) were also tested for their cytotoxic effect on normal cell lines i.e., NIH/3T3 (murine embryonic fibroblast by the SRB assay method. The cell lines were grown in RPMI 1640 medium containing 10% fetal bovine serum and 2 mM L-glutamine. For the present screening experiments, cells were inoculated into 96 well microtiter plates in 90 µL at 5000 cells per well. After cell inoculation, the microtiter plates were incubated at 37 °C, 5% CO2, 95% air and 100% relative humidity for 24 h prior to addition of experimental drugs. Experimental drugs were solubilized in appropriate solvent to prepare stock of 10^−2 concentration. At the time of experiment four 10-fold serial dilutions were made using complete medium. Aliquots of 10 µL of these different drug dilutions were added to the appropriate micro-titer wells already containing 90 µL of medium, resulting in the required final drug concentrations. After compound addition, plates were incubated at standard conditions for 48 h. and assay was terminated by the addition of cold trichloroacetic acid (TCA). Cells were fixed in situ by the gentle addition of […] (final concentration, 10% TCA) and incubated for 60 min at 4 °C. The supernatant was discarded; the plates were washed five times with tap water and air dried.
(§2) Sulforhodamine B (SRB) solution (50 µL) at 0.4% (w/v) in 1% acetic acid was added to each of the wells, and plates were incubated for 20 min at room temperature. After staining, unbound dye was recovered and the residual dye was removed by washing five times with 1% acetic acid. The plates were air dried. Bound stain was subsequently eluted with 10 mM trizma base, and the absorbance was read on an ELISA plate reader at a wavelength of 540 nm with 690 nm reference wavelength. All the tests were repeated in at least three independent experiments at the concentrations of 10, 20, 40 and 80 µg/mL [57].

[2] = tested on: HT-29 human colon cancer cell line; test: cells; format: cell-based; details: for anticancer activity compared with standard drug adriamycin, HT-29: HT-29 (human colon cancer) cell line; for GI50: SRB assay, 48 h, HT-29
Method: as §1, §2

[3] = tested on: Hep-G2 human hepatoma cell line; test: cells; format: cell-based; details: SRB assay, 48 h, Hep-G2
Method: as §1, §2

[4] = tested on: MCF-7 human breast cancer cell line; test: cells; format: cell-based; details: 48 h
Method: as §1, §2

[5] = tested on: MG-63 human osteosarcoma cell line; test: cells; format: cell-based; details: SRB assay, 48 h
Method: as §1, §2

[6] = tested on: SK-MEL-2 human melanoma cancer cell line; test: cells; format: cell-based; details: SRB assay, 48 h, read-out: GI50 SKMEL-2
Method: as §1, §2

[7] = in vitro; format: cell-based; details: mouse; SRB assay, normal murine embryonic fibroblast cell line; read-out: GI50 NIH/3T3
Method: as §1, §2

[8] = tested on: IMR-32 neuroblastoma cell line; format: cell-based, human; details: at the GI50 concentration, in contrast to control cells
[9] = tested on: NIH/3T3 normal murine embryonic fibroblast cell line; test: in vitro; format: cell-based; details: SRB assay
Method: as §1, §2

[10] = tested on: SK-MEL-2 human melanoma cancer cell line; format: cell-based; details: at the GI50 concentration, in comparison to control cells

| SMILES | GI50 ([1]; Homo sapiens) [µM] | anticancer activity compared with standard drug adriamycin, HT-29 [2] | GI50 ([2]; Homo sapiens) [µM] | GI50 ([3]; Homo sapiens, HepG2) [µM] | GI50 ([4]; Homo sapiens, MCF7, SRB assay) [µM] | GI50 ([5]; Homo sapiens) [µM] | GI50 ([6]; Homo sapiens) [µM] | GI50 [7] [µM] | melting point [°C] | morphological changes in IMR-32 cancer cells [8] | GI50 [1] [µM] | GI50 [2] [µM] | GI50 [3] [µM] | GI50 ([4]; SRB assay) [µM] | GI50 [5] [µM] | GI50 [6] [µM] | GI50 [9] [µM] | morphological changes in SK-MEL-2 cancer cell lines [10] |
| --- | --- | --- | --- | --- | --- | --- | --- | --- | --- | --- | --- | --- | --- | --- | --- | --- | --- | --- |
| CCOP(=O)(OCC)C(NN=C1C(=O)Nc2ccccc21)c1ccc(O)cc1 (stereo not drawn) [4f, Diethyl(4-hydroxyphenyl)(2-(2-oxoindolin-3-ylidene)hydrazinyl)methylphosphonate] | < 0.1 | equipotent | < 0.1 | 12.2 | > 100 | < 0.1 | 51.6 | > 250 | 140 to 142 | cell detachment, cell wall deformation, cell shrinkage and reduced number of viable cells |  |  |  |  |  |  |  |  |
| CCOP(=O)(OCC)C(NN=C1C(=O)Nc2ccccc21)c1ccc(O)c(OC)c1 (stereo not drawn) [4g, Diethyl(4-hydroxy-3-methoxyphenyl)(2-(2-oxoindolin-3-ylidene)hydrazinyl)methylphosphonates] |  |  |  |  |  |  |  |  |  |  | > 100 | 12.2 | 32 | > 100 | < 0.1 | 24 | > 250 | cell detachment, cell wall deformation, cell shrinkage and reduced number of viable cells |
| CCOP(=O)(OCC)C(N/N=C1\C(=O)Nc2ccccc21)c1ccc([N+](=O)[O-])cc1 (stereo not drawn) [4m, (Z)-Diethyl (4-nitrophenyl)(2-(2-oxoindolin-3-ylidene)hydrazinyl)methylphosphonate] | 56.6 | equipotent | < 0.1 | 13.3 | 77.2 | < 0.1 | 44.2 | > 250 | 172 to 174 |  |  |  |  |  |  |  |  |  |
| CCOP(=O)(OCC)C(N/N=C1\C(=O)Nc2ccccc21)c1scnc1C (stereo not drawn) [4n, (Z)-Diethyl (4-methylthiazole-5-yl)(2-(2-oxoindolin-3-ylidene)hydrazinyl)methylphosphonate] | 67.8 | equipotent | < 0.1 | 24.9 | 58.2 | < 0.1 | 33.1 | > 250 | 188 to 190 |  |  |  |  |  |  |  |  |  |
